Experimental data reported in ChEMBL document CHEMBL1125202 (J Med Chem, 1991).

The compounds below were run against Sodium/potassium-transporting ATPase (assay: Inhibition of [3H]ouabain binding to Na/K ATP-ase in dog heart muscle).
Format: tissue-based, Canis lupus familiaris, Muscle tissue

Question: With `C[C@]12CC[C@H](OC[C@H]3O[C@H](O)[C@H](O)[C@@H](O)[C@@H]3O)CC1CC[C@@H]1[C@@H]2CC[C@]2(C)[C@@H](C3=CC(=O)OC3)CC[C@@]12O` (stereo not given in full) as the compound, how does the IC50 read?
Answer: Its IC50 is 7 nM.

Question: `CC(O)C1CCC2(O)C3CCC4C[C@@H](OC[C@H]5O[C@@H](O)[C@H](O)[C@H](O)[C@H]5O)CCC4(C)C3CCC12C` (stereo not given in full) was tested. Which IC50 did it give?
Answer: The IC50 was 400 nM.

Question: `CC(=O)C1CCC2(O)C3CCC4C[C@@H](OC[C@H]5O[C@@H](O)[C@H](O)[C@H](O)[C@H]5O)CCC4(C)C3CCC12C` (stereo not given in full) was tested. Which IC50 did it give?
Answer: The IC50 was 500 nM.

Question: For `C[C@]12CC[C@H](OC[C@H]3O[C@H](O)[C@H](O)[C@@H](O)[C@@H]3O)CC1CC[C@@H]1[C@@H]2CC[C@]2(C)[C@H](C3=CC(=O)OC3)CC[C@@]12O` (stereo not given in full), which IC50 is on record?
Answer: The IC50 was 3 nM.

Question: `CC(O)C1CCC2(O)C3CCC4C[C@H](OC[C@H]5O[C@@H](O)[C@H](O)[C@H](O)[C@H]5O)CCC4(C)C3CCC12C` (stereo not given in full) was tested. Which IC50 did it give?
Answer: Its IC50 is 75 nM.

Question: With `CC(=O)C1CCC2(O)C3CCC4C[C@H](OC[C@H]5O[C@@H](O)[C@H](O)[C@H](O)[C@H]5O)CCC4(C)C3CCC12C` (stereo not given in full) as the compound, how does the IC50 read?
Answer: Its IC50 is 150 nM.

Question: With `C[C@]12CC[C@H](OC[C@@H]3O[C@H](OC[C@@H]4O[C@H](OC[C@@H]5O[C@H](O)C[C@@H](O)[C@H]5O)C[C@@H](O)[C@H]4O)C[C@@H](O)[C@H]3O)C[C@@H]1CC[C@@H]1[C@@H]2CC[C@]2(C)[C@@H](C3=CC(=O)OC3)CC[C@@]12O` as the compound, how does the IC50 read?
Answer: Its IC50 is 8 nM.

Question: How did the IC50 turn out when `C[C@]12CC[C@H](OC[C@@H]3O[C@H](O)C[C@@H](O)[C@H]3O)C[C@@H]1CC[C@@H]1[C@@H]2CC[C@]2(C)[C@@H](C3=CC(=O)OC3)CC[C@@]12O` was run?
Answer: Its IC50 is 9 nM.

Question: How did the IC50 turn out when `CC(O)[C@H]1CC[C@@]2(O)[C@@H]3CC[C@H]4C[C@@H](OC[C@@H]5O[C@H](OC[C@@H]6O[C@H](OC[C@@H]7O[C@H](O)C[C@@H](O)[C@H]7O)C[C@@H](O)[C@H]6O)C[C@@H](O)[C@H]5O)CC[C@]4(C)[C@H]3CC[C@]12C` (stereo not given in full) was run?
Answer: The IC50 was 650 nM.

Question: `CC(=O)[C@H]1CC[C@@]2(O)[C@@H]3CC[C@H]4C[C@@H](OC[C@@H]5O[C@H](OC[C@@H]6O[C@H](OC[C@@H]7O[C@H](O)C[C@@H](O)[C@H]7O)C[C@@H](O)[C@H]6O)C[C@@H](O)[C@H]5O)CC[C@]4(C)[C@H]3CC[C@]12C` was tested. Which IC50 did it give?
Answer: The IC50 was 1000 nM.

Question: `CC(O)[C@H]1CC[C@@]2(O)[C@@H]3CC[C@H]4C[C@@H](OC[C@@H]5O[C@H](O)C[C@@H](O)[C@H]5O)CC[C@]4(C)[C@H]3CC[C@]12C` (stereo not given in full) was tested. Which IC50 did it give?
Answer: The IC50 was 650 nM.

Question: How did the IC50 turn out when `C[C@]12CCCC[C@@H]1CC[C@@H]1[C@@H]2CC[C@]2(C)[C@@H](C3=CC(=O)OC3)CC[C@@]12O` was run?
Answer: The IC50 was 70 nM.

Question: `C[C@]12CC[C@H](OC[C@@H]3O[C@H](OC[C@@H]4O[C@H](O)C[C@@H](O)[C@H]4O)C[C@@H](O)[C@H]3O)C[C@@H]1CC[C@@H]1[C@@H]2CC[C@]2(C)[C@@H](C3=CC(=O)OC3)CC[C@@]12O` was tested. Which IC50 did it give?
Answer: Its IC50 is 8 nM.

Question: With `CC(O)[C@H]1CC[C@@]2(O)[C@@H]3CC[C@H]4CCCC[C@]4(C)[C@H]3CC[C@]12C` (stereo not given in full) as the compound, how does the IC50 read?
Answer: The IC50 was 24000 nM.

Question: How did the IC50 turn out when `CC(=O)[C@H]1CC[C@@]2(O)[C@@H]3CC[C@H]4CCCC[C@]4(C)[C@H]3CC[C@]12C` was run?
Answer: Its IC50 is over 200000 nM.

Question: Which IC50 does the source give for `C[C@H](O)C1CC[C@@]2(O)[C@@H]3CC[C@H]4C[C@@H](OC[C@@H]5O[C@H](OC[C@@H]6O[C@H](O)C[C@@H](O)[C@H]6O)C[C@@H](O)[C@H]5O)CC[C@]4(C)[C@H]3CC[C@]12C` (stereo not given in full) here?
Answer: Its IC50 is 650 nM.

Question: With `CC(=O)[C@H]1CC[C@@]2(O)[C@@H]3CC[C@H]4C[C@@H](OC[C@@H]5O[C@H](OC[C@@H]6O[C@H](O)C[C@@H](O)[C@H]6O)C[C@@H](O)[C@H]5O)CC[C@]4(C)[C@H]3CC[C@]12C` as the compound, how does the IC50 read?
Answer: Its IC50 is 800 nM.

Question: For `CC(=O)[C@H]1CC[C@@]2(O)[C@@H]3CC[C@H]4C[C@@H](OC[C@@H]5O[C@H](O)C[C@@H](O)[C@H]5O)CC[C@]4(C)[C@H]3CC[C@]12C`, which IC50 is on record?
Answer: Its IC50 is 1300 nM.

Question: `CC(O)[C@H]1CC[C@@]2(O)[C@@H]3CCC4C[C@@H](O)CC[C@]4(C)[C@H]3CC[C@]12C` (stereo not given in full) was tested. Which IC50 did it give?
Answer: Its IC50 is 6400 nM.

Question: With `CC(=O)[C@H]1CC[C@@]2(O)[C@@H]3CC[C@H]4C[C@@H](O)CC[C@]4(C)[C@H]3CC[C@]12C` as the compound, how does the IC50 read?
Answer: Its IC50 is 20000 nM.
